Results as given in US11642348B2, “Substituted benzene compounds” (Epizyme, Inc., priority 2012, dated 2023).
pIC50: −log10 of the molar value.

Key:
WSU-DLCL2 cells = experiment: Cell proliferation analysis (WSU-DLCL2, Cell Titer Glo); type: cell-based; details: Homo sapiens, WSUDLCL2, Table 3B, 6 days, read-out: WSU proliferation IC50
[1] = biological target: wild-type EZH2 (PRC2 complex) (Homo sapiens (Human), UniProt Q15910); experiment: PRC2 enzyme assay on peptide substrates (wild-type EZH2); details: read-out: WT EZH2 IC50; Table 3B; wild-type PRC2 enzyme, peptide substrate
[2] = tested on: H3K27me3 in WSU-DLCL2 cells; experiment: WSU-DLCL2 methylation assay (H3K27me3 ELISA); type: cell-based; details: Homo sapiens, WSUDLCL2, Table 3B, 96 hours, read-out: ELISA H3K27me3 IC50

Sequence of wild-type EZH2 (PRC2 complex) (Q15910 other isoform, or with tags, fused parts or gaps): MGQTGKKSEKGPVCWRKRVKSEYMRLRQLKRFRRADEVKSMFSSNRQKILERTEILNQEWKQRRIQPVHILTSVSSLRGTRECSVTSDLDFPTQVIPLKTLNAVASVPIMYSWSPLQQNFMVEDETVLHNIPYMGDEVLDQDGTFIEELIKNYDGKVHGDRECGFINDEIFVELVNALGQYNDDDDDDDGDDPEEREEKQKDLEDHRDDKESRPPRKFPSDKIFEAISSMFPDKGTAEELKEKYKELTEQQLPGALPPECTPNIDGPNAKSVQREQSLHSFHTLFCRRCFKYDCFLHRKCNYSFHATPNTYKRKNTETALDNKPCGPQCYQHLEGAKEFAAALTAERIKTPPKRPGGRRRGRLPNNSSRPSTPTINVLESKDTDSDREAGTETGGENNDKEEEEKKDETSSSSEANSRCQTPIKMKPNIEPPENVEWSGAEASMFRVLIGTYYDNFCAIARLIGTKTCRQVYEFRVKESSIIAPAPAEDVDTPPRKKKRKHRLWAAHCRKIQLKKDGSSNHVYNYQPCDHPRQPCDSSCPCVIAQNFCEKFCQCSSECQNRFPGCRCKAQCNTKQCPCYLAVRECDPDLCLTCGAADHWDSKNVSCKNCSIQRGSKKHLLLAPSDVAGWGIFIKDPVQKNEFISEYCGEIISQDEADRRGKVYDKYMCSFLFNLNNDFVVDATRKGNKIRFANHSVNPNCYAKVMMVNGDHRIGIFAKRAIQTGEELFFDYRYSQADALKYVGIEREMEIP
Sequence of wild-type EZH2 (PRC2 complex) (O75530 whole entry partner): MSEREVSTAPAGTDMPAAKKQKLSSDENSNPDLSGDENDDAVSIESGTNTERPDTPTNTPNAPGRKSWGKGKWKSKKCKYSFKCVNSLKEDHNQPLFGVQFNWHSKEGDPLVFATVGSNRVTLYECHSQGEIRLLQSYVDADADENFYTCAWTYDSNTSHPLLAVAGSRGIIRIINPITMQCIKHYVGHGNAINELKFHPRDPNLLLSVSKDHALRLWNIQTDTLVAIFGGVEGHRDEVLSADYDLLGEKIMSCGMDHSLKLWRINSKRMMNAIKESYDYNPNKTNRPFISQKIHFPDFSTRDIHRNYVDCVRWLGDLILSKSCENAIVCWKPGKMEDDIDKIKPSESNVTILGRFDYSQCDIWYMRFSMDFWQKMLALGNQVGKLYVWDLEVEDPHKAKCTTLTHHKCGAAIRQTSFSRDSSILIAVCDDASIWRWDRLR
Sequence of wild-type EZH2 (PRC2 complex) (Q15022 whole entry partner): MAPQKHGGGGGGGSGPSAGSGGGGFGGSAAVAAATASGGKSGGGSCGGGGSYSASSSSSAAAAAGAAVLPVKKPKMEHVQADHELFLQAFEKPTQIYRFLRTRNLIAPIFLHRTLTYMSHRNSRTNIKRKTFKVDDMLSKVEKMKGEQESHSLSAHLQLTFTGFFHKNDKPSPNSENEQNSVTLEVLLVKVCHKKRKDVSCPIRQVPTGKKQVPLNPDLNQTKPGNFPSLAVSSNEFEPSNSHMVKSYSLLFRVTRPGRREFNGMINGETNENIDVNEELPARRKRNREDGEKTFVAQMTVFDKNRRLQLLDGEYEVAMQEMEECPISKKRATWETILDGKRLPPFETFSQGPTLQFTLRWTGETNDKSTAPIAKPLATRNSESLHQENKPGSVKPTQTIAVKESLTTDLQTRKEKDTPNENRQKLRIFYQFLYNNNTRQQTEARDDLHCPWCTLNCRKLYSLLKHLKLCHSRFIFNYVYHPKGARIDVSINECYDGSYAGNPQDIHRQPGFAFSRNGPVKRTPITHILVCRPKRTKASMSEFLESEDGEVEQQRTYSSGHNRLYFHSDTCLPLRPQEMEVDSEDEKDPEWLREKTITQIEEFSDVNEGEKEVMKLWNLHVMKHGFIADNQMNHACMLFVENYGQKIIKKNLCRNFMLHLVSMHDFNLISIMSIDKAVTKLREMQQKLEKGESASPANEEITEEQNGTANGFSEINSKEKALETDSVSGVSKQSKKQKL
Sequence of wild-type EZH2 (PRC2 complex) (Q09028 whole entry partner): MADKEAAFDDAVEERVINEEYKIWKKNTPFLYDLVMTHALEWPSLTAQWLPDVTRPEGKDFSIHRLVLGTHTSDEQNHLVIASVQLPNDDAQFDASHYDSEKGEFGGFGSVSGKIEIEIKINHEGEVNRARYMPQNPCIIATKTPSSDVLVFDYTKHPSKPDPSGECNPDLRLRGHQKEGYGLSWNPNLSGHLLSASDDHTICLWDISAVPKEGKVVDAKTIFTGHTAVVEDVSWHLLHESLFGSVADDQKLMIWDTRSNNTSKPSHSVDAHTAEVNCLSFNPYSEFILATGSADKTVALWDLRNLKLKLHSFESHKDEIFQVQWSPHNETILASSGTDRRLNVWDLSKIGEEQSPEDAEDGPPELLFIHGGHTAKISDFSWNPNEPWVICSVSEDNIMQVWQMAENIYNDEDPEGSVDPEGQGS

pIC50 [1] | pIC50 [2] | Compound | pIC50 (WSU-DLCL2 cells)
> 8.00 | 4.86 | CCN(c1cc(-c2ccc(CN3CCOCC3)nc2)cc(C(=O)NCc2c(C)cc(C)[nH]c2=O)c1C)C1C[C@@H](C)N[C@H](C)C1 (stereo partly drawn) [Compound 121] | 5.42
> 8.00 | < 4.60 | CCN(c1cc(-c2ccc(CN3CCN(C)CC3)nc2)cc(C(=O)NCc2c(C)cc(C)[nH]c2=O)c1C)C1C[C@@H](C)N[C@H](C)C1 (stereo partly drawn) [Compound 122] | 5.12
> 8.00 | < 4.60 | CCN(c1cc(-c2ccc(CN3CCNCC3)nc2)cc(C(=O)NCc2c(C)cc(C)[nH]c2=O)c1C)C1C[C@@H](C)N[C@H](C)C1 (stereo partly drawn) [Compound 123] | 5.10
> 8.00 | 5.69 | CCN(c1cc(-c2cnc(OC)cn2)cc(C(=O)NCc2c(C(C)C)cc(C)[nH]c2=O)c1C)C1CCOCC1 [Compound 126] | 6.04
> 8.00 | 6.28 | CCN(c1cc(-c2cnc(OC(C)C)cn2)cc(C(=O)NCc2c(C)cc(C)[nH]c2=O)c1C)C1CCOCC1 [Compound 127] | 6.14
> 8.00 | 5.81 | CCN(c1cc(-c2cnc(C(F)(F)F)cn2)cc(C(=O)NCc2c(C)cc(C)[nH]c2=O)c1C)C1CCOCC1 [Compound 128] | 6.01
> 8.00 | 6.51 | CCN(c1cc(-c2cnc(OC3CN(C)C3)cn2)cc(C(=O)NCc2c(C)cc(C)[nH]c2=O)c1C)C1CCOCC1 [Compound 131] | 6.71
7.70 | 6.75 | CCN(c1cc(-c2cnc(OC3CCN(C)CC3)cn2)cc(C(=O)NCc2c(C)cc(C)[nH]c2=O)c1C)C1CCOCC1 [Compound 132] | 6.28
> 8.00 | 6.79 | CCN(c1cc(-c2ccc(CN3CCCN(C)CC3)nc2)cc(C(=O)NCc2c(C)cc(C)[nH]c2=O)c1C)[C@H]1CC[C@H](N(C)C)CC1 [Compound 146] | 6.66
> 8.00 | 7.13 | CCN(c1cc(-c2ccc(CN3CCC[C@H](O)C3)nc2)cc(C(=O)NCc2c(C)cc(C)[nH]c2=O)c1C)[C@H]1CC[C@H](N(C)C)CC1 [Compound 147] | 6.94
> 8.00 | 6.30 | CCN(c1cc(-c2ccc(CN3CC[C@H](O)C3)nc2)cc(C(=O)NCc2c(C)cc(C)[nH]c2=O)c1C)[C@H]1CC[C@H](N(C)C)CC1 [Compound 148, N-((4,6-Dimethyl-2-oxo-1,2-dihydropyridin-3-yl)methyl)-3-((4-trans-(dimethylamino)cyclohexyl)(ethyl)amino)-5-(6-(((S)-3-hydroxypyrrolidin-1-yl)methyl)pyridin-3-yl)-2-methylbenzamide] | 6.61
> 8.00 | 7.70 | CCN(c1cc(-c2cnc(N3CCN(C)CC3)cn2)cc(C(=O)NCc2c(C)cc(C)[nH]c2=O)c1C)[C@H]1CC[C@H](N(C)C)CC1 [Compound 149] | 6.50
> 8.00 | 6.42 | CCN(c1cc(-c2ccc(CN3CC[C@H](O)C3)nc2)cc(C(=O)NCc2c(C(C)C)cc(C)[nH]c2=O)c1C)[C@H]1CC[C@H](N(C)C)CC1 [Compound 150] | 6.44
> 8.00 | 6.21 | CCN(c1cc(-c2ccc(CN3CC(O)C3)nc2)cc(C(=O)NCc2c(C)cc(C)[nH]c2=O)c1C)[C@H]1CC[C@H](N(C)C)CC1 [Compound 151] | 6.17
7.74 | 7.22 | CCN(c1cc(-c2ccc(COC)nc2)cc(C(=O)NCc2c(C)cc(C)[nH]c2=O)c1C)[C@H]1CC[C@H](N(C)C)CC1 [Compound 152] | 6.39
> 8.00 | 6.16 | CCN(c1cc(-c2ccc(C(=O)NCCO)cc2)cc(C(=O)NCc2c(C(C)C)cc(C)[nH]c2=O)c1C)C1CCOCC1 [Compound 156] | 6.05
